Reference: BindingDB's records for doi:10.7270/Q2X928QK (University of Pittsburgh, 2007)

target: T1, M-phase inducer phosphatase 2 (Homo sapiens, UniProt P30305); test: Cdc25B phosphatase inhibitors with catalase present, dose response, biochemical, probe assessment (AID 668)
T1 sequence (P30305 whole entry): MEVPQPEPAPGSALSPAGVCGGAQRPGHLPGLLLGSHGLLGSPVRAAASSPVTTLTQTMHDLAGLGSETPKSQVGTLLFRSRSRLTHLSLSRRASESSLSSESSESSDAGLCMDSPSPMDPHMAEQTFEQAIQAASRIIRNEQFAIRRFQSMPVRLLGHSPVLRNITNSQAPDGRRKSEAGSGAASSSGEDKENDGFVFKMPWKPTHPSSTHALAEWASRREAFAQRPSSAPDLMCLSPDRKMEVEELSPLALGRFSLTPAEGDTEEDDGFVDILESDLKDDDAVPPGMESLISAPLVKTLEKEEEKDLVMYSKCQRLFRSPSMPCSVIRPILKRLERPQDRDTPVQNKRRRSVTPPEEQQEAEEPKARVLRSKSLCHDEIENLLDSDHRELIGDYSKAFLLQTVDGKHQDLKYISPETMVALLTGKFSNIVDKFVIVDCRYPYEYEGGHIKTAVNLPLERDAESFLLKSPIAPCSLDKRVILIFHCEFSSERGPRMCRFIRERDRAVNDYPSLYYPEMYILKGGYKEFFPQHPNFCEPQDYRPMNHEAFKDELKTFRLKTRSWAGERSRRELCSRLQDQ

IC50 [µM]	Compound
> 50	N#Cc1c(N2CCCC2)nc(N)c2c(N)nc(N3CCCC3)cc12 [SMR000061605]
45.8	Oc1nc(Nc2ccccc2)cc2ccccc12 [MLS000043701]
> 50	CCOC(=O)C(C(=O)OCC)c1cc(Br)c2noc3c2c1C(=O)c1ccccc1-3 [MLS000038842]
> 50	Cc1c(N=c2c(=O)c3ccccc3c2=O)c(=O)n(-c2ccccc2)n1C [MLS000105950]
> 50	CCOc1ccc2noc3c2c1C(=O)c1ccccc1-3 [MLS000106837]
3.8	O=C(OC1CCCCC1)c1ccc2c(c1)C1C=CCC1C(C(=O)O)N2 (stereo not given) [SMR000019385]
> 50	COc1ccc2noc3c2c1C(=O)c1ccccc1-3 [MLS000106874]
6.18	COc1cccc2c1NC(C(=O)O)C1CC=CC21 (stereo not given) [SMR000009698]

The next lines start with the compound.

Compound	IC50 [µM]
Cc1ccc2c(c1C)NC(C(=O)O)C1CC=CC21 (stereo not given)	7.12
O=C(Nc1ccc2nc(-c3ccco3)c(-c3ccco3)nc2c1)N1CCCCCC1	22.4
Nc1cccc2cnccc12 [isoquinolin-5-amine]	> 50
O=C(O)C1Nc2c(O)cccc2C2C=CCC12 (stereo not given)	11
CCn1nc(-c2ccccc2)nc2c(=O)n(C)c(=O)nc1-2 [1-Ethyl-6-methyl-3-phenyl-1H-pyrimido[5,4-e][1,2,4]triazine-5,7-dione]	20
O=C1Cc2ccccc2C(=O)N1CCc1ccccc1 [2-(2-phenylethyl)-4H-isoquinoline-1,3-dione]	48.9
Cc1ccc2c(c1)C1C=CCC1C(C(=O)O)N2 (stereo not given) [MLS-0067149.0001]	7.35
O=C(NC1(O)C(=O)c2ccccc2C1=O)c1ccccc1 [N-(2-hydroxy-1,3-dioxo-2-indenyl)benzamide]	> 50
CC(=O)Nc1cc(OC(C)=O)c2nonc2c1OC(C)=O [Acetic acid 7-acetoxy-5-acetylamino-benzo[1,2,5]oxadiazol-4-yl ester]	> 50
[O-]/[N+](=C\c1ccncc1)c1ccccc1	> 50
CCn1nc(-c2cccs2)nc2c(=O)n(C)c(=O)nc1-2 [1-ethyl-6-methyl-3-thiophen-2-yl-pyrimido[5,4-e][1,2,4]triazine-5,7-dione]	> 50
Cc1ccccc1Nc1cc2ccccc2c(O)n1 [3-[(2-methylphenyl)amino]-2H-isoquinolin-1-one]	45
N#Cc1c(N)sc(=S)c2c1CCN(Cc1ccccc1)C2 [3-Amino-7-benzyl-1-thioxo-5,6,7,8-tetrahydro-1H-thiopyrano[3,4-c]pyridine-4-carbonitrile]	14.1
Cn1ncnc2c(=O)n(C)c(=O)nc1-2	23
COc1ccc(Br)cc1C=c1sc2nc(-c3ccco3)nn2c1=O [5-[(5-bromanyl-2-methoxy-phenyl)methylidene]-2-(furan-2-yl)-[1,3]thiazolo[3,2-b][1,2,4]triazol-6-one]	4.2
[O-]/[N+](=C\c1ccc(OC(F)F)cc1)c1ccccc1 [1-[4-(difluoromethoxy)phenyl]-N-phenylmethanimine oxide]	> 50
O=C1C=Cc2ccccc2C1=O [1,2-dihydronaphthalene-1,2-dione]	25.4
